Here are results for two molecules from ChEMBL document CHEMBL1155045, “Apoptosis-inducing galactolipids from a cultured marine diatom, Phaeodactylum tricornutum” (2008).

Common to all, as to type: functional
The nature of assay [1]: Effect on apoptosis-inducing gene deffective mouse D3 cells assessed as cell growth at 64 uM after 48 hrs by MTT assay. The conditions noted are these: D3, 48 h, read-out: Activity.
Assay [2] is described as follows: Induction of apoptosis in mouse W2 cells assessed as cell death at 64 uM after 48 hrs by MTT assay. For orientation: Tetrazolium dyes change colour on reduction, which living cells bring about.
Assay [3] can be described thus: Effect on apoptosis-inducing gene deffective mouse D3 cells assessed as cell growth at 52 uM after 48 hrs by MTT assay. Conditions: D3, 48 h, read-out: Activity.
Assay [4] is described as follows: Induction of apoptosis in mouse W2 cells assessed as cell death at 52 uM after 48 hrs by MTT assay.

`CC/C=C\C/C=C\C/C=C\C/C=C\C/C=C\CC(=O)OC[C@H](CO[C@@H]1O[C@H](CO)[C@H](O)[C@H](O)C1O)OC(=O)CCCC/C=C\C/C=C\C/C=C\C/C=C\CC` (single isomer, unassigned): in assay [1], the growth at 64 µM is 14%. Also, the Activity in assay [2] was found to be 18%.

For `CC/C=C\C/C=C\C/C=C\C/C=C\C/C=C\CCCC(=O)OC[C@H](CO[C@@H]1O[C@H](CO)[C@H](O)[C@H](O)C1O)OC(=O)CCCC/C=C\C/C=C\C/C=C\CCC` (single isomer, unassigned), in assay [3], the growth at 52 µM worked out at 10%. Further, in assay [4], the Activity is on record as 18%.
